Assay results reported in ChEMBL document CHEMBL5465560, “Selectivity Literature for EUbOPEN Chemogenomic Library” (2024).

Assays:
[1] = target: T1, Mitogen-activated protein kinase kinase kinase kinase 2 (Homo sapiens) (UniProt Q12851); assay: Selectivity interaction (KinomeScan (DiscoverX)) EUB0000666a MAP4K2; conditions: at 10 µM
T1 sequence (whole entry): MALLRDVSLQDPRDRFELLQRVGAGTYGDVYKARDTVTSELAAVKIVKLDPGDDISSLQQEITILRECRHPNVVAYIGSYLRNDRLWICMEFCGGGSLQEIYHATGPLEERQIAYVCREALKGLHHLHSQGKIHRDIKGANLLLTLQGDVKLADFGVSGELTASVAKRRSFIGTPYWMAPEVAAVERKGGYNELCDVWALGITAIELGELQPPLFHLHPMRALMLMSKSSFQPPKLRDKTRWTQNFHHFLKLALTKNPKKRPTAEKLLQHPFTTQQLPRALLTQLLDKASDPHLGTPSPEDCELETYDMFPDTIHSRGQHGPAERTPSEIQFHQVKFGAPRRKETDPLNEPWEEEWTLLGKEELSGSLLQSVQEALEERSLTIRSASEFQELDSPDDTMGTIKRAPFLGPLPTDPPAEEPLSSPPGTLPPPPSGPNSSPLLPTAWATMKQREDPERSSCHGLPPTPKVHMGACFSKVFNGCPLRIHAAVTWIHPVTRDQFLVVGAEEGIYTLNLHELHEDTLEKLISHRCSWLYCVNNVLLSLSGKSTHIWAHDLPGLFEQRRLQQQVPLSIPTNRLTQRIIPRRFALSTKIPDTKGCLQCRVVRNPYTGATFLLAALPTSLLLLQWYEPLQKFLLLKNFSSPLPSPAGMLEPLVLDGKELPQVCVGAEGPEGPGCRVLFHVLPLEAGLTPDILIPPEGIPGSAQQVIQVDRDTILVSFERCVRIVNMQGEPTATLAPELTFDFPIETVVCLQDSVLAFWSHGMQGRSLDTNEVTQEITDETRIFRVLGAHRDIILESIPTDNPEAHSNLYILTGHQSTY

[2] = target: Protein-tyrosine kinase 2-beta (Homo sapiens) (UniProt Q14289); assay: Selectivity interaction (KinomeScan (DiscoverX)) EUB0000695a PTK2B; conditions: at 100 nM
Chain of Protein-tyrosine kinase 2-beta (Homo sapiens) (Q14289 whole entry, looked up): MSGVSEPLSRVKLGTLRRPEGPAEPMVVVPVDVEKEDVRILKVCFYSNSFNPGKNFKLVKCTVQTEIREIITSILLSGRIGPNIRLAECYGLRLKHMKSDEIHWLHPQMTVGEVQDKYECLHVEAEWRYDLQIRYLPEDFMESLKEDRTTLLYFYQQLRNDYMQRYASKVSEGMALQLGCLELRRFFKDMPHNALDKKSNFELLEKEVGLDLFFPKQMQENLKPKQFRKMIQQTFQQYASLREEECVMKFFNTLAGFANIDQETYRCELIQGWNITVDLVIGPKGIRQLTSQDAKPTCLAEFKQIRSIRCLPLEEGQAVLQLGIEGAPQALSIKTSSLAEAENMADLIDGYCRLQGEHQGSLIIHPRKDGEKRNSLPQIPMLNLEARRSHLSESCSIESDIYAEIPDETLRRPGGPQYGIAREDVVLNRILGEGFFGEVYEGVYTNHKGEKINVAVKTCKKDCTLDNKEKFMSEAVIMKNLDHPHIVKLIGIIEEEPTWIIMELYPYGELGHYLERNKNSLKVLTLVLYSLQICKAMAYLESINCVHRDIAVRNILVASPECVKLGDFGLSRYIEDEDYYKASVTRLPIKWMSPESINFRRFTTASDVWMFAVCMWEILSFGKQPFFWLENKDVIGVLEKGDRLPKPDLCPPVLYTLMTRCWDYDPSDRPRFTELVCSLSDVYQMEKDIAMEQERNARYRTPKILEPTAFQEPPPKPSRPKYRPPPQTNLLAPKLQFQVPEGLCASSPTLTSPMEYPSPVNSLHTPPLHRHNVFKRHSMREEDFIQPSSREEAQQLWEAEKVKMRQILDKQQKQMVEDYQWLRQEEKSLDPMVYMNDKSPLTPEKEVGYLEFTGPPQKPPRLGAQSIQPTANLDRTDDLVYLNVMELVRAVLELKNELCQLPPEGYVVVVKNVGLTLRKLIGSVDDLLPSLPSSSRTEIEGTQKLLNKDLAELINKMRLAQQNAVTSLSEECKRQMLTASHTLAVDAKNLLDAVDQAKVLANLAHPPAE

[3] = target: BDNF/NT-3 growth factors receptor (Homo sapiens) (UniProt Q16620); assay: Selectivity interaction (KinomeScan (DiscoverX)) EUB0000595a NTRK2; conditions: at 10 µM
Chain of BDNF/NT-3 growth factors receptor (Homo sapiens) (Q16620 32-822 limits assumed): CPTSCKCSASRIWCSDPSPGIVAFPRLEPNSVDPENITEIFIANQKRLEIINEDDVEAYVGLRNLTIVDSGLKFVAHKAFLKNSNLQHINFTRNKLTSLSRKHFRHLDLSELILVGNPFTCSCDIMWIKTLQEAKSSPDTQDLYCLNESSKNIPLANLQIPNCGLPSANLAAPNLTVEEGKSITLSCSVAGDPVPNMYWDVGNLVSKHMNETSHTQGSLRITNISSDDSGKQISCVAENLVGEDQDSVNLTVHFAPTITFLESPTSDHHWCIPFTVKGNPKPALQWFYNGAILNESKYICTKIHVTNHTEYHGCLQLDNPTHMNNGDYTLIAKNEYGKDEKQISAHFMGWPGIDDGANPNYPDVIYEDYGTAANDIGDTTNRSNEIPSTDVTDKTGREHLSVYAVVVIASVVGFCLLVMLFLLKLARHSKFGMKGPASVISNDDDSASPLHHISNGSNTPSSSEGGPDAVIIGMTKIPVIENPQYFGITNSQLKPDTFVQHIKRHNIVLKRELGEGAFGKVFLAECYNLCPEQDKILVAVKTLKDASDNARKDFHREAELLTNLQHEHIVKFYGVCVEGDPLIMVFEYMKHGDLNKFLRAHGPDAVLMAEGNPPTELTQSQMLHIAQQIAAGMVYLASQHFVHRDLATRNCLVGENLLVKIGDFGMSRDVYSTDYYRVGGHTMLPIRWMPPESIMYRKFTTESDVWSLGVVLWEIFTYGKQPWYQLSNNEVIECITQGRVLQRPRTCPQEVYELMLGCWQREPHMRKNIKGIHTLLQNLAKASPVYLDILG

[4] = tested on: Tyrosine-protein kinase ABL1 (Homo sapiens), P00519 [Q252H]; assay: Selectivity interaction (Ambit KINOMEscan and KiNATiv profiling in Jurkat cells) EUB0000090b ABL1; assay type: cell-based; conditions: at 1 µM
[5] = target: T2, Mitogen-activated protein kinase kinase kinase 3 (Homo sapiens) (UniProt Q99759); assay: Selectivity interaction (KinomeScan (DiscoverX)) EUB0000655a MAP3K3; conditions: at 10 µM
T2 sequence (whole entry): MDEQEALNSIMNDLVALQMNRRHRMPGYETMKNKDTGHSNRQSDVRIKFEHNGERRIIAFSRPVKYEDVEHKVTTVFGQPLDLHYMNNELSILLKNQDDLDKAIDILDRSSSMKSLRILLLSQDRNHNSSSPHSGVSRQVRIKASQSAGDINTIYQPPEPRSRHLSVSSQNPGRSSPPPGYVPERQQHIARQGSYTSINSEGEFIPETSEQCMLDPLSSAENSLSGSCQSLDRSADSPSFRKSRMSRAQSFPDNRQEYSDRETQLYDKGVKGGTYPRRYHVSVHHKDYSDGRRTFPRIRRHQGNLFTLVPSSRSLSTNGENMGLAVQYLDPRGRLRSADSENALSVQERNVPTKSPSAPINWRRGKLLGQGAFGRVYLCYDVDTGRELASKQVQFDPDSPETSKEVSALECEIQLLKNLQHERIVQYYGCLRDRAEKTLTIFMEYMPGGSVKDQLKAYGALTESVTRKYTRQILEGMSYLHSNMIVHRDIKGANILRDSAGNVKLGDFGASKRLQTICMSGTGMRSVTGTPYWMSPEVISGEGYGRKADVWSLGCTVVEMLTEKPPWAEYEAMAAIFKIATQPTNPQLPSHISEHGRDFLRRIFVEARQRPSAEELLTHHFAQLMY

[6] = target: T3, Inhibitor of nuclear factor kappa-B kinase subunit alpha (Homo sapiens) (UniProt O15111); assay: Selectivity interaction (KinomeScan (DiscoverX)) EUB0000045b CHUK
T3 sequence (whole entry): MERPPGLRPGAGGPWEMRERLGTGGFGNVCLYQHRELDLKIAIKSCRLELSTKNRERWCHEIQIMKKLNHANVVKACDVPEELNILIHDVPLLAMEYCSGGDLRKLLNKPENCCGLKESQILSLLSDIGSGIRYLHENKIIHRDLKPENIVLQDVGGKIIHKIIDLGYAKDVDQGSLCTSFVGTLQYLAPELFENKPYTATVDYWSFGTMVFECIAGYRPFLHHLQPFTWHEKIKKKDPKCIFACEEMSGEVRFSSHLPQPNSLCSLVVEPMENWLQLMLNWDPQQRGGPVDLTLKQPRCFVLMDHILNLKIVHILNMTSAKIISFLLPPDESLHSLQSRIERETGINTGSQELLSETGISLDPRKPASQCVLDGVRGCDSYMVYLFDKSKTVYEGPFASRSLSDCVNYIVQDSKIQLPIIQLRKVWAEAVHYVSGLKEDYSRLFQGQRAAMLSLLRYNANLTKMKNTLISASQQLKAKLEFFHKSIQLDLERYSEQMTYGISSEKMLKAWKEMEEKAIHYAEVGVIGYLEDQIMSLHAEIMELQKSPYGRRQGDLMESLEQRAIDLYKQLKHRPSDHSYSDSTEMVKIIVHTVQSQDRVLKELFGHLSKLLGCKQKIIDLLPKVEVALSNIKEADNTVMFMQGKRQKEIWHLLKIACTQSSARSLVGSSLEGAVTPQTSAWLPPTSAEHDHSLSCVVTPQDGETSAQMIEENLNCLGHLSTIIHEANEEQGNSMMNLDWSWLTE

[7] = target: T4, MAP kinase-activated protein kinase 5 (Homo sapiens) (UniProt Q8IW41); assay: Selectivity interaction (KinomeScan (DiscoverX)) EUB0001619a MAPKAPK5; conditions: at 1 µM
T4 sequence (whole entry): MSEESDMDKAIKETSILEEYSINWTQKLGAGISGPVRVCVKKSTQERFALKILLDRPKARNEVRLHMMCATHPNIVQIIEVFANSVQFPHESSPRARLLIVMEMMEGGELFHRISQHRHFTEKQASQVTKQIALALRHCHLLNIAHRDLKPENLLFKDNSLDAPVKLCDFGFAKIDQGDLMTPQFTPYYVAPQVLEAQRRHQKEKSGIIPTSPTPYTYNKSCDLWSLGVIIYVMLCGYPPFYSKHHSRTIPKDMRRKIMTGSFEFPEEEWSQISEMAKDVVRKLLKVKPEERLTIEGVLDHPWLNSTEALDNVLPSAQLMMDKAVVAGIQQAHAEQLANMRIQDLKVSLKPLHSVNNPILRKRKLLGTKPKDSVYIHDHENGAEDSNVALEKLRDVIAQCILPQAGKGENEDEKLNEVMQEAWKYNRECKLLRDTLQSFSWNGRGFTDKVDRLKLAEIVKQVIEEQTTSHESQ

**Q.** With `O=C(NOC[C@H](O)CO)c1ccc(F)c(F)c1Nc1ccc(I)cc1F` as the molecule, how does the % of control [1] read?
**A.** 100%

**Q.** With `Cc1cc(F)c(C(=O)Nc2cccc(-c3nncn3C(C)C)n2)cc1-n1cnc(C2CC2)c1` as the molecule, how does the % of control [2] read?
**A.** 100%

**Q.** How did the % of control [3] turn out when `COCC(=O)NC/C=C/c1ccc2ncnc(Nc3ccc(Oc4ccc(C)nc4)c(C)c3)c2c1` [CP-724714] was run?
**A.** 100%

**Q.** For `CN(C)C/C=C/C(=O)Nc1ccc(C(=O)N2CCCC(Nc3ncc(Cl)c(-c4c[nH]c5ccccc45)n3)C2)cc1` (stereo not drawn), which % of control [4] is on record?
**A.** 100%

**Q.** For `CN(C)CCOc1ccc(-c2nc(-c3ccncc3)c(-c3ccc4c(c3)CC/C4=N\O)[nH]2)cc1`, which % of control [5] is on record?
**A.** 76%

**Q.** `C=CC(=O)Nc1cc(-n2c(=O)ccc3cnc4ccc(-c5ccc(NS(C)(=O)=O)cc5)cc4c32)ccc1C` was tested. Which % of control ([6]; at 1 µM) did it give?
**A.** 100%

**Q.** And the % of control ([6]; at 10 µM)?
**A.** 100%

**Q.** `N#Cc1cccc(-c2c[nH]c3ncnc(N4CCOCC4)c23)c1` was tested. Which % of control [7] did it give?
**A.** 100%
